Results as given in patent US20090054394A1, “POLYMORPHISMS IN MGST3 ARE ASSOCIATED WITH ELEVATED ALAT LEVELS AFTER XIMELAGATRAN TREATMENT” (priority 2005, published 2009).

System: alanine aminotransferase (ALAT) levels
Test: Clinical trials, longer-term ximelagatran treatment: alanine aminotransferase (ALAT) elevation
Assay type: in vivo, human
Source text: Phase III clinical trials have been performed using fixed doses of melagatran and ximelagatran for the prevention of VTE in hip or knee replacement surgery. In addition, clinical trials have been performed using ximelagatran for the treatment and long-term secondary prevention of VTE, and for the prevention of stroke in patients with non-valvular atrial fibrillation. Ximelagatran has also been tested for secondary thrombosis prophylaxis post-myocardial infarction/acute coronary syndrome (ACS).
Alanine aminotransferrase (ALAT) is an enzyme mostly expressed in the liver (EC 2.6.1.2). It is also called serum glutamate pyruvate transaminase (SGPT) or alanine transaminase (ALT). This enzyme is release into the plasma by liver cell death, which is a normal event. However, when liver cell death increases, ALAT levels rise above the normal range. The spill-over of this enzyme into blood is routinely measured as a marker of abnormal liver-cell damage. For example, alcoholic or viral hepatitis will increase ALAT levels, as will severe congestive heart failure. ALAT is also markedly raised in hepatitis and other acute liver damage. An elevated ALAT in the presence of normal levels of plasma alkaline phosphatase helps distinguish liver disease caused by liver-cell damage from diseases caused by problems in biliary ducts. Elevations of ALAT are normally measured in multiples of the upper limit of normal (ULN), with a reference range of 15-45 U/L in most laboratories. In 1987, in a study of 19,877 healthy Air Force recruits, only 99 (0.5%) had confirmed ALAT elevations (as reviewed in Green & Flamm (2002) Gastroenterology 123:1367-1384).
The increase in ALAT values with ximelagatran, usually occurred within the first 6 months of treatment and were mainly asymptomatic. […] Subject to the future regulatory approval of ximelagatran, regular liver function testing (LFT) using an appropriate algorithm may be required if ximelagatran is used for treatment periods exceeding a month. […]

CCOC(=O)CN[C@@H](C(=O)N1CC[C@H]1C(=O)NCc1ccc(/C(N)=N\O)cc1)C1CCCCC1 [ximelagatran, EtOOC—CH2—(R)Cgl-Aze-Pab-OH]
patients exhibiting ALAT 3-fold or more above the upper limit of normal (≧3×ULN) (longer-term treatment (>35 days), 1.2% in the comparator groups): 7.9%
reversibility of the increases in ALAT (regardless of whether treatment was continued or discontinued): reversible in most patients
time of occurrence of the increase in ALAT values (usually, time from start of treatment): ≤ 6 months
